Measurements as given in patent US12358886B2, “Heterocyclic compounds for use in the treatment of cancer” (Artios Pharma Limited, priority 2019, dated 2025).

Biological target: Polθ protein (amino acids 2-2590) (Homo sapiens, UniProt O75417)
Assay: Polθ full length enzyme potency assay (PicoGreen)
Details: Polθ IC50 (nM), full length N-His, C-term FLAG tagged Polθ, PicoGreen fluorescence, 12 point concentration response

Polθ protein (amino acids 2-2590), sequence (O75417 2-2590): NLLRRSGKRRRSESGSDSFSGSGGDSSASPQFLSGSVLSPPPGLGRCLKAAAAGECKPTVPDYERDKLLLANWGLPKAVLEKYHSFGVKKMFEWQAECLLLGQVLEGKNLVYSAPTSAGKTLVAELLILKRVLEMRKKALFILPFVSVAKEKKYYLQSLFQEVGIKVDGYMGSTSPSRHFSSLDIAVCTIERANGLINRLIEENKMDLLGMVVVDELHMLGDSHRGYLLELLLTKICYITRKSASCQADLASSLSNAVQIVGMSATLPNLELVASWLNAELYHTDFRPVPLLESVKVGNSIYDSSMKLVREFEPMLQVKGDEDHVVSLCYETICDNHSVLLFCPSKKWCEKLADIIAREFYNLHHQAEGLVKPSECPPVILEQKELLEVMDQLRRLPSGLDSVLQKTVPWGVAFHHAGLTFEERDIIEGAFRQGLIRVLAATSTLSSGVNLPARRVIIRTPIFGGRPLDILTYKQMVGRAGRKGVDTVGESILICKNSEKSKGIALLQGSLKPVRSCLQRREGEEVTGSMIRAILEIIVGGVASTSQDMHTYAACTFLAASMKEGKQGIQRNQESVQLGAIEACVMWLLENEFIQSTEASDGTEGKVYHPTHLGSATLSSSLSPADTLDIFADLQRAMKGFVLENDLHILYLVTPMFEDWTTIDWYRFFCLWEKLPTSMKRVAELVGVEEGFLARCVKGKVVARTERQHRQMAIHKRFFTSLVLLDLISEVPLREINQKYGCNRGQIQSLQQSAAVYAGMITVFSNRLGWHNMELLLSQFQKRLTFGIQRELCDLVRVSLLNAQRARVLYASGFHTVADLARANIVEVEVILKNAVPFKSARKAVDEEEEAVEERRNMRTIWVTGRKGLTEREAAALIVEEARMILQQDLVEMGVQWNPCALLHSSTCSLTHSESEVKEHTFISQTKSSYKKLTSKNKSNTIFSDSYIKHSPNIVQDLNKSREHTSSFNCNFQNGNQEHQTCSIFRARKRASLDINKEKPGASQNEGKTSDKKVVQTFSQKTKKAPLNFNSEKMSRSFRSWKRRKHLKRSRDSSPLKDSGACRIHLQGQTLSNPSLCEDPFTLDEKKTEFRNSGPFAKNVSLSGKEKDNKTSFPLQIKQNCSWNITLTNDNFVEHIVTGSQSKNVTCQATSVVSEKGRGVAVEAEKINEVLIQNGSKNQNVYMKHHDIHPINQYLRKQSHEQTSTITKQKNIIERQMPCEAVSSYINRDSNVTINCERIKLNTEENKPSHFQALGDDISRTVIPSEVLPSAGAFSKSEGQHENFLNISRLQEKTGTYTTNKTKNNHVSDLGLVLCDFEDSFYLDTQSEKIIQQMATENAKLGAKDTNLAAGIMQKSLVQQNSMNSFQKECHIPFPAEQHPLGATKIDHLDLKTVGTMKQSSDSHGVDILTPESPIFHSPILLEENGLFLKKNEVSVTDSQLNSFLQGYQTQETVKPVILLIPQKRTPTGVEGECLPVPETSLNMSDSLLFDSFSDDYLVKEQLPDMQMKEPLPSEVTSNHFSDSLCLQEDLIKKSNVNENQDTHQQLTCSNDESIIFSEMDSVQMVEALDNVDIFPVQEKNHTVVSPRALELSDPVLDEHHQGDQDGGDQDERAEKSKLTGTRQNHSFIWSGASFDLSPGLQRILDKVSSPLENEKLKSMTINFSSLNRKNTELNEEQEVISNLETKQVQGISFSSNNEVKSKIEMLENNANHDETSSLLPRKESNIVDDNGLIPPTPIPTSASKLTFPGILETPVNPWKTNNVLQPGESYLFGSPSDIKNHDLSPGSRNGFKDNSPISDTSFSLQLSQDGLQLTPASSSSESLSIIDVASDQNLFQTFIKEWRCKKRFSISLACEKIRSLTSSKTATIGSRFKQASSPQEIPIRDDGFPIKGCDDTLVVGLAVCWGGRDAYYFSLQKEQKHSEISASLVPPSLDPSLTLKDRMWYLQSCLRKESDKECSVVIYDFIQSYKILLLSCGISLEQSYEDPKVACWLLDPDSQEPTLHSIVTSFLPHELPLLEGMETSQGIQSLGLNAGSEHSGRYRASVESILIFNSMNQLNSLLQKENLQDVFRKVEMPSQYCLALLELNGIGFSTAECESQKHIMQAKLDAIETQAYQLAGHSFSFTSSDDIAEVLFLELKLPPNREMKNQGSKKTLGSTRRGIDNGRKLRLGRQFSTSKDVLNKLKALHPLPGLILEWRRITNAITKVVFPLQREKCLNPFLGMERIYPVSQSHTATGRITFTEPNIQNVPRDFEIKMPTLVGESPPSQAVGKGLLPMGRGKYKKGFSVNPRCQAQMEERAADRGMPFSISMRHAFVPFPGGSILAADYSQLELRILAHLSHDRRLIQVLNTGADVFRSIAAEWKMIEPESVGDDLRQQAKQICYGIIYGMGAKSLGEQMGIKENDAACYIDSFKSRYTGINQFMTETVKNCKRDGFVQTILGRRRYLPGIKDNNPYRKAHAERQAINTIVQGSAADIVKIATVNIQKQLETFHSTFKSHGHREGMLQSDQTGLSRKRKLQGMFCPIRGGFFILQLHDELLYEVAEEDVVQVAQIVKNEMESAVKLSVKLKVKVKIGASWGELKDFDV

| SMILES | IC50 |
| --- | --- |
| C=Cc1cc(N(C)C(=O)[C@@H]2COC(=O)N2c2cc(C(F)(F)F)cc(C)n2)ccc1F [Example 109, (S)—N-(4-Fluoro-3-vinylphenyl)-N-methyl-3-(6-methyl-4-(trifluoromethyl)pyridin-2-yl)-2-oxooxazolidine-4-carboxamide] | 49 nM |
| Cc1cc(Br)cc(N2C(=O)OC[C@H]2C(=O)N(C)c2ccc(F)c(Cl)c2)n1 [Example 116, (S)-3-(4-Bromo-6-methylpyridin-2-yl)-N-(3-chloro-4-fluorophenyl)-N-methyl-2-oxooxazolidine-4-carboxamide] | 71 nM |
| Cc1cc(C(F)(F)F)cc(N2C(=O)CC[C@H]2C(=O)N(C)c2ccc(F)c(C)n2)n1 [Example 60, (S)—N-(5-Fluoro-6-methylpyridin-2-yl)-N-methyl-1-(6-methyl-4-(trifluoromethyl)pyridin-2-yl)-5-oxopyrrolidine-2-carboxamide] | 76 nM |
| CCN(C(=O)[C@@H]1C[C@H](N)CN1c1nc(C)cc(C)c1C#N)c1cccc(C)c1 [Example 38, (2S,4S)-4-Amino-1-(3-cyano-4,6-dimethylpyridin-2-yl)-N-ethyl-N-(m-tolyl)pyrrolidine-2-carboxamide] | 273 nM |
| CCc1cc(N(C)C(=O)[C@@H]2COC(=O)N2c2cc(C(F)(F)F)cc(C)n2)ccc1F [Example 110, (S)—N-(3-Ethyl-4-fluorophenyl)-N-methyl-3-(6-methyl-4-(trifluoromethyl)pyridin-2-yl)-2-oxo-oxazolidine-4-carboxamide] | 21 nM |
| CCN(C(=O)[C@H]1C[C@@H](NCCS(C)(=O)=O)CN1c1nc(C)cc(C)c1C#N)c1cccc(C)c1 (stereo in doubt) [Example 45, (2R,4R)-1-(3-Cyano-4,6-dimethylpyridin-2-yl)-N-ethyl-4-((2-(methylsulfonyl)ethyl)-amino)-N-(m-tolyl)pyrrolidine-2-carboxamide] | 85 nM |
| CCN(C(=O)[C@@H]1C[C@H](N(C)C2CNC(=O)C2)CN1c1cc(C(F)(F)F)cc(C)n1)c1ccc(F)c(F)c1 (stereo partly drawn) [Example 145, (2S,4S)-N-(3,4-Difluorophenyl)-N-ethyl-4-(methyl(5-oxopyrrolidin-3-yl)amino)-1-(6-methyl-4-(trifluoromethyl)pyridin-2-yl)pyrrolidine-2-carboxamide] | 708 nM |
| Cc1cc(C(F)(F)F)cc(N2C(=O)[C@H](CN(C)C)C[C@@H]2C(=O)N(C)c2ccc(F)c(Cl)c2)n1 (stereo in doubt) [Example 78, (2R,4S)—N-(3-Chloro-4-fluorophenyl)-4-((dimethylamino)methyl)-N-methyl-1-(6-methyl-4-(trifluoromethyl)pyridin-2-yl)-5-oxopyrrolidine-2-carboxamide] | 48 nM |
| Cc1cc(C(F)(F)F)cc(N2C(=O)OC[C@H]2C(=O)N(C)c2ccc(C)c(O)c2)n1 [Example 105, (S)—N-(3-Hydroxy-4-methylphenyl)-N-methyl-3-(6-methyl-4-(trifluoromethyl)pyridin-2-yl)-2-oxooxazolidine-4-carboxamide] | 19 nM |
| Cc1cc(C)c(C#N)c(N2C[C@@H](O)C[C@H]2C(=O)N(C)c2ccc(F)c(C(F)(F)F)c2)n1 [Example 10, (2S,4S)-1-(3-Cyano-4,6-dimethylpyridin-2-yl)-N-(4-fluoro-3-(trifluoromethyl)phenyl)-4-hydroxy-N-methylpyrrolidine-2-carboxamide] | 316 nM |
| CCc1cc(C)nc(N2C(=O)OC[C@H]2C(=O)N(C)c2ccc(F)c(Cl)c2)c1 [Example 119, (S)—N-(3-Chloro-4-fluorophenyl)-3-(4-ethyl-6-methylpyridin-2-yl)-N-methyl-2-oxooxazolidine-4-carboxamide] | 39 nM |
| Cc1cc(C)c(C#N)c(N2C[C@@H](O)C[C@H]2C(=O)N(C)c2ccc(F)c(CF)c2)n1 [Example 14, (2S,4S)-1-(3-Cyano-4,6-dimethylpyridin-2-yl)-N-(4-fluoro-3-(fluoromethyl)phenyl)-4-hydroxy-N-methylpyrrolidine-2-carboxamide] | 415 nM |

Next, values leading:

| IC50 | SMILES |
| --- | --- |
| 7 nM | Cc1cc(C(F)(F)F)cc(N2C(=O)N(CC(O)CN3CCOCC3)C[C@H]2C(=O)N(C)c2ccc(F)c(Cl)c2F)n1 (stereo partly drawn) [Example 217, (4S)—N-(3-Chloro-2,4-difluorophenyl)-1-(2-hydroxy-3-morpholinopropyl)-N-methyl-3-(6-methyl-4-(trifluoromethyl)pyridin-2-yl)-2-oxoimidazolidine-4-carboxamide] |
| 15 nM | Cc1cc(C(F)(F)F)cc(N2C(=O)OC[C@H]2C(=O)N(C)c2ccc3cc[nH]c3n2)n1 [Example 127, (S)—N-Methyl-3-(6-methyl-4-(trifluoromethyl)pyridin-2-yl)-2-oxo-N-(1H-pyrrolo[2,3-b]pyridin-6-yl)oxazolidine-4-carboxamide] |
| 11 nM | Cc1cc(C(F)(F)F)cc(N2C(=O)OC[C@H]2C(=O)N(C)c2ccc(Cl)cc2F)n1 [Example 97, (S)-N-(4-Chloro-2-fluorophenyl)-N-methyl-3-(6-methyl-4-(trifluoromethyl)pyridin-2-yl)-2-oxooxazolidine-4-carboxamide] |
| 5 nM | Cc1cc(C(F)(F)F)cc(N2C(=O)OC[C@H]2C(=O)N(C)c2ccc(F)c(Cl)c2F)n1 [Example 85, (S)—N-(3-Chloro-2,4-difluorophenyl)-N-methyl-3-(6-methyl-4-(trifluoromethyl)pyridin-2-yl)-2-oxooxazolidine-4-carboxamide] |
| 4 nM | Cc1cc(C(F)(F)F)cc(N2C(=O)N(CC(O)CN3CCC(F)(F)C3)C[C@H]2C(=O)N(C)c2ccc(F)c(Cl)c2F)n1 (stereo partly drawn) [Example 216, (4S)—N-(3-Chloro-2,4-difluorophenyl)-1-(3-(3,3-difluoropyrrolidin-1-yl)-2-hydroxy-propyl)-N-methyl-3-(6-methyl-4-(trifluoromethyl)pyridin-2-yl)-2-oxoimidazolidine-4-carboxamide] |
| 11 nM | Cc1cc(C(F)(F)F)cc(N2C(=O)N(CCCN3CCNCC3)C[C@H]2C(=O)N(C)c2ccc(F)c(Cl)c2F)n1 [Example 220, (S)—N-(3-Chloro-2,4-difluorophenyl)-N-methyl-3-(6-methyl-4-(trifluoromethyl)pyridin-2-yl)-2-oxo-1-(3-(piperazin-1-yl)propyl)imidazolidine-4-carboxamide] |
| 7 nM | Cc1cc(C(F)(F)F)cc(N2C(=O)NC[C@H]2C(=O)N(C)c2ccc3c(Cl)c[nH]c3n2)n1 [Example 240, (S)—N-(3-Chloro-1H-pyrrolo[2,3-b]pyridin-6-yl)-N-methyl-3-(6-methyl-4-(trifluoromethyl)pyridin-2-yl)-2-oxoimidazolidine-4-carboxamide] |
| 8 nM | Cc1cc(C(F)(F)F)c(C#N)c(N2CC[C@@H](O)[C@H]2C(=O)N(C)c2ccc(F)c(Cl)c2)n1 [Example 81, (2S,3R)—N-(3-Chloro-4-fluorophenyl)-1-(3-cyano-6-methyl-4-(trifluoromethyl)pyridin-2-yl)-3-hydroxy-N-methylpyrrolidine-2-carboxamide] |

Same assay, conditions: read-out: Polθ IC50; full length N-His, C-term FLAG tagged Polθ, PicoGreen fluorescence, 12 point concentration response

| IC50 | SMILES |
| --- | --- |
| 24 nM | Cc1cc(C(F)(F)F)cc(N2C(=O)OC[C@H]2C(=O)N(C)c2cc(Cl)ccc2F)n1 [Example 96, (S)-N-(5-Chloro-2-fluorophenyl)-N-methyl-3-(6-methyl-4-(trifluoromethyl)pyridin-2-yl)-2-oxooxazolidine-4-carboxamide] |
| 27 nM | CCN(C(=O)[C@@H]1C[C@H](O)CN1c1nc(C)cc(C(F)(F)F)c1C#N)c1cccc(C)c1 [Example 22, (2S,4S)-1-(3-Cyano-6-methyl-4-(trifluoromethyl)pyridin-2-yl)-N-ethyl-4-hydroxy-N-(m-tolyl)-pyrrolidine-2-carboxamide] |
